# In publication PMC6098585, “Characterization and structure-activity relationships of indenoisoquinoline-derived topoisomerase I inhibitors in unsilencing the dormant Ube3a gene associated with Angelman syndrome” (Molecular Autism, 2018):
# pEC50: −log10 of the molar value. Read-outs that look alike come from different tables or passages of the source.
# Key:
# [1] = system: paternal Ube3a-YFP; assay: Paternal Ube3a-YFP unsilencing, fluorescence immunostaining and high-content imaging in primary cortical neurons (Ube3a^m+/pYFP); assay type: cell-based, mouse; conditions: for neurons expressing paternal Ube3a-YFP above threshold: 0.3 μM, n = 4 wells, YFP-positive cells / total Hoechst-positive cells
# Procedure: We followed the protocols for fluorescent immunostaining and high-content imaging of cortical neurons as previously described. Briefly, 72 h after drug treatment, the cells were fixed with 4% paraformaldehyde at room temperature for 15 min. After rinsing with phosphate-buffered saline (PBS) three times, the cells were permeabilized with 1% Triton-X 100 in PBS, followed by blocking with 5% NGS and 0.1% Triton-X 100 in PBS at room temperature for 30 min. After blocking, the cells were incubated with primary antibody, rabbit anti-GFP (1:1000, Novus Biologicals), at 4 °C overnight. The cells were then briefly rinsed with PBS followed by incubation with secondary antibody, goat anti-rabbit Alexa Fluor 488 (1:200, Thermo Fisher/Invitrogen), at room temperature. One hour after secondary antibody incubation, the cells were rinsed with PBS and fluorescent images were acquired using a BD Pathway 855 bioimager. The acquired images were processed by CellProfiler to count the number of positive cells and measure fluorescent intensity (Additional file 2). To determine the percentage of neurons expressing paternal Ube3a-YFP, we counted the total number of cells (Hoechst) and YFP-positive cells, and the number of YFP-positive cells was divided by the total number of cells. Fluorescence intensity was measured in neurons expressing unsilenced paternal Ube3a-YFP and normalized to vehicle control.
# [2] = system: paternal Ube3a-YFP; assay: Western blot of paternal UBE3A-YFP in cultured neurons from Ube3a^m+/pYFP mice; assay type: cell-based, mouse; conditions: 0.3 μM, 72 h, n = 3/group
# Procedure: (§1) We followed the same procedures of Western blot analysis as previously described. In brief, 72 h after drug treatment, we collected the cultured neurons from 6-well plates and extracted total protein with protein extraction buffer. Bradford assay was performed to measure protein concentration, and 30 μg of total protein was loaded for Bis-polyacrylamide gel electrophoresis (Bio-Rad). Electrophoresed proteins were transferred to nitrocellulose membrane (0.45 μm, Bio-Rad). The membranes were blocked with 5% non-fat milk in TBS-T at room temperature for 30 min followed by overnight 4 °C incubation with primary antibodies (rabbit anti-GFP, 1:1000, Novus Biologicals; rabbit anti-Ube3a, 1:1000, Bethyl Lab; mouse anti-actin; 1:5000, Sigma). The next day, the membranes were rinsed with TBS-T three times and incubated with HPR-conjugated secondary antibodies for 1 h at room temperature (goat anti-rabbit, 1:1000, Vector Lab or goat anti-mouse, 1:1000, Vector Lab). Following secondary antibody incubation, the membranes were rinsed with TBS-T at room temperature for 1 h (4–5 times) and ECL substrates (Bio-Rad) were used to visualize immunostaining using an Amersham Imager 600 (AI600, GE Life Sciences).
# [3] = system: paternal UBE3A; assay: Western blot of paternal UBE3A in cultured neurons from AS model mice (Ube3a^m−/p+); assay type: cell-based, mouse; conditions: 0.3 μM, 72 h, vs DMSO, n = 3/group
# Procedure: as §1
# [4] = in vitro; conditions: mouse
# [5] = system: Top1; conditions: cited from earlier work
# [6] = Cytotoxicity test (Cyto Tox-Glo) in cultured cortical neurons; conditions: mouse, primary cultured cortical neurons from E14.5 embryos
# [7] = system: ABCG2; design: method as in PMID 17974983; conditions: cited from earlier work
# [8] = system: MDR1; design: method as in PMID 17974983; conditions: cited from earlier work
# [9] = design: method as in earlier work; conditions: cited from earlier work
# [10] = design: method as in PMID 27169793; conditions: at the concentrations examined; cited from earlier work
# [11] = Mus musculus, Primary cortical neuron, unsilencing of paternal UBE3A-YFP, drug 72 h from DIV 7, n = 4/group, estimated from Fig. 4, read-out: EC50
# [12] = maximum response of unsilencing paternal Ube3a-YFP, fluorescence intensity normalized to vehicle control, 72 h, estimated from Fig. 4
# [13] = Table S1, nine analogues, unsilencing of paternal UBE3A-YFP, 72 h
# [14] = Table S1, nine analogues, unsilencing of paternal UBE3A-YFP, 72 h, 'ambiguous' = limited effective dose range, read-out: EC50
Compound,neurons expressing paternal Ube3a-YFP above threshold ([1]; 72 h),"pEC50 [1, 11]","Emax [1, 12]","paternal UBE3A-YFP protein level (Western blot, normalized to actin) [2]","paternal UBE3A protein level (Western blot, normalized to actin) [3]",CC50 at 72 h [6],"Emax [1, 13]","pEC50 [1, 14]",other results
CC[C@@]1(O)C(=O)OCc2c1cc1n(c2=O)Cc2cc3c(CN(C)C)c(O)ccc3nc2-1 [Topotecan],33.0 ± 2.56%,7.52,1.51 (± 0.11),led to paternal UBE3A-YFP protein production,high level of paternal UBE3A protein,,,,CC50 at 72 h [4]: 2300 nM
"COc1cc2c3c(n(CCCn4ccnc4)c(=O)c2cc1OC)-c1cc2c(cc1C3=O)OCO2 [Indimitecan, indimitecan]",23.9 ± 1.72%,8.13,1.47 (± 0.10),led to paternal UBE3A-YFP protein production,high level of paternal UBE3A protein,789 nM,,,inhibition of Top1 enzymatic activity [5]: ~100%
COc1cc2c3c(n(C[C@@H](O)CO)c(=O)c2cc1OC)-c1cc2c(cc1C3=O)OCO2 [DB-IV-58],17.7 ± 3.87%,7.51,1.45 (± 0.12),led to paternal UBE3A-YFP protein production,high level of paternal UBE3A protein,2010 nM,,,
COc1cc2c3c(n(CCCO)c(=O)c2cc1OC)-c1cc2c(cc1C3=O)OCO2 [MNR-IV-64],,,,,,,1.37 (±0.09),6.20,
C=CCn1c2c(c3cc(OC)c(OC)cc3c1=O)C(=O)c1cc3c(cc1-2)OCO3 [MJ-II-66A],,,,,,,1.20 (±0.05),~7.57,"range of doses that produce Ube3a-YFP unsilencing before toxicities ([1]; dose-response 1E-10 to 3E-5 M, 72 h): very limited range of doses"
O=C1c2ccccc2-c2c1c1ccc([N+](=O)[O-])cc1c(=O)n2CC(O)C(O)C(O)CO (centres unmarked) [DB-V-37],14.1 ± 3.55%,7.52,1.48 (± 0.08),led to paternal UBE3A-YFP protein production,high level of paternal UBE3A protein,2020 nM,,,
"COc1cc2c3c(n(CCCN4CCOCC4)c(=O)c2cc1OC)-c1cc2c(cc1C3=O)OCO2 [Indotecan, indotecan]",37.1 ± 5.19%,7.59,1.78 (± 0.13),led to paternal UBE3A-YFP protein production,high level of paternal UBE3A protein,,,,"pEC50 ([1]; Mus musculus, Primary cortical neuron, read-out: EC50 to produce Ube3a unsilencing): ~7.59; inhibition of Top1 enzymatic activity [5]: ~100%; substrate for transporter ABCG2 [7]: not a substrate; substrate for transporter MDR1 [8]: not a substrate; CNS penetration [9]: favorable CNS penetration; tolerability in a clinical population [10]: well tolerated; CC50 at 72 h [4]: 2010 nM"
COc1cc2c3c(n(C[C@H](O)CO)c(=O)c2cc1OC)-c1cc2c(cc1C3=O)OCO2 [DB-IV-50],,,,,,,1.39 (±0.07),6.92,
